# In US9221900B2, “Methods for identifying safe and functional humanized antibodies” (AC IMMUNE S.A., priority 2010, dated 2015):
# Experiments:
# [1] = tested on: primary cortical cultures; experiment: Intracellular Aβ1-42 accumulation ELISA on trypsin-cleared cells; assay type: cell-based, rat
# Experimental: FIG. 3 provides graphs and immunocytochemical images corresponding to the experiments described in Example 6.4. Aβ1-42 oligomer binding to neurites was reduced by the anti-Aβ IgG4 monoclonal antibody. […] Green indicates staining with TuJ1, red indicates labeling with anti-Aβ (clone 6E10), and blue indicates staining with DAPI. […] Quantitative measures of fluorescence are shown for 30 min treatment and 18 h treatment (B). Mean results (±SEM) of two experiments are shown. […] Cortical cultures from P1 rats were treated as described for (A), except that Aβ1-42 tagged with HyLite Fluor-488 was used (C). Aβ1-42-labeled samples are shown in the upper panel and DAPI-stained samples are shown in the lower panel. […] Aβ1-42 fluorescence was quantified, with the mean (±SD) of the two independent experiments shown (D). […]
# The intracellular accumulation of Aβ1-42 was determined in trypsin-cleared cells using an ELISA assay.
# To measure intracellular Aβ1-42 accumulation by ELISA, primary cortical cultures were treated in 6-well cell-culture plates (Costar) after which they were washed and trypsin-cleared (Bateman et al., 2007) before lysis in cell-lysis buffer consisting of 50 mM Tris-HCl (pH 8.0), 150 mM NaCl, 5 mM EDTA, 1 mM sodium orthovanadate, 1% Triton X-100, and containing protease- and phosphatase-inhibitor cocktails. Protein concentration was determined by the BCA assay (Pierce). […]
# APP/PS1 mice = experiment: In vivo two-photon imaging of amyloid plaques; parameters: species or system mouse; conditions: systemic dosing; tracked over multiple weeks
# Experimental: FIG. 11 provides In vivo imaging of Aβ plaques in APP/PS1 mice treated with anti-beta amyloid antibody was performed. Systemic dosing of MABT modulates individual amyloid plaques in vivo. Amyloid plaques in APP/PS1 animals were labeled with Methoxy-X04 injected I.P., visualized by in vivo two-photon microscopy and tracked over multiple weeks (A). The relative change in plaque volume over time plotted as fold-increase from the initial imaging session (B).
# Cranial windows were implanted above the somatosensory cortex of 10-month old APP hAPP(V717I)/PS1 mice, as previously described (Trachtenberg et al 2002, Holtmaat et al 2009), 2 weeks before the initial imaging session. Twenty-four hours prior to each imaging session animals were injected with 10 mg/kg Methoxy-X04 I.P. to visualize individual amyloid plaques (Klunk et al 2002) and immediately prior to imaging injected I.V. with AngioSense680 (VisEn Medical) to visualize blood vessels. For each imaging session animals were anesthetized with an isoflurane-oxygen mixture and mounted to the microscope using a head post. Images were collected via a two-photon laser scanning microscope (Ultima in vivo; Prairie Technologies) using a Ti:sapphire laser (MaiTai DeepSee; Spectra Physics) tuned to 820 nm delivering ˜30 mW to the back-focal plane of a 40× NA 0.8 objective lens (Olympus). […]
substance,measurement,setting,value
"MABT: humanized anti-Aβ monoclonal antibody of IgG4 isotype, affinity matured and humanized form of mouse mMABT",reduction of Aβ1-42 oligomer internalization (intracellular accumulation),[1],more than 60%
same,individual plaque volume,APP/PS1 mice,decreased in volume
